Measurements: patent publication US10994016B2, “Graphene oxide mediated cellular delivery of gadolinium-labeled molecules” (Northwestern University, priority 2015, dated 2021)
Read-outs that look alike come from different tables or passages of the source.

Columns and labels:
HeLa cells [1] = assay: Cellular delivery studies with and without GO co-incubation, HeLa; assay type: cell-based
Experimental: ICP-MS Samples were prepared in 15-mL conical tubes by adding ACS reagent grade nitric acid (70%), followed by incubation at 70° C. overnight to allow for complete sample digestion. The effectiveness of this digestion protocol was previously validated for GO. After incubation, a multi-element internal standard (containing Bi, Ho, In, Li, Sc, Tb, and Y, Inorganic Ventures, Christiansburg, Va.) and milli-Q water (18.2 MΩ·cm) were added to produce a final sample of 3% (v/v) nitric acid and 5 ng/mL internal standard.
ICP-MS was performed on a computer-controlled (Plasmalab software) Thermo X series II ICP-MS (Thermo Fisher Scientific, Waltham, Mass., USA) operating in standard mode equipped with an ESI SC-2 autosampler (Omaha, Nebr., USA). Each sample was acquired using 1 survey run (10 sweeps) and 3 main (peak jumping) runs (100 sweeps). The isotopes selected for analysis were Gd with In and Ho isotopes selected as internal standards for data interpolation. Instrument performance is optimized daily through an autotune followed by verification via a performance report (passing manufacturer specifications). Instrument calibration was accomplished by preparing individual-element Gd standards (Inorganic Ventures, Christiansburg, Va., USA) using concentrations of 0.78125, 1.5625, 3.125, 6.25, 12.50, 25.00, 50.00, 100.0, and 200.0 ng/mL containing 3.0% nitric acid (v/v) and 5.0 ng/mL of multi-element internal standard.
Dulbecco's modified phosphate buffered saline (DPBS), media, and dissociation reagents were purchased from Life Technologies (Carlsbad, Calif.). CorningBrand® cell culture consumables (flasks, plates, etc.) and sera were purchased from VWR Scientific (Radnor, Pa.). HeLa cells (ATCC® CCL-2™) and KB cells (ATCC® CCL-17™) were purchased from the American Type Culture Collection (ATCC, Manassas, Va.) and cultured in phenol red-free minimum essential media (MEM) supplemented with 10% fetal bovine serum (FBS). Prior to all experiments, cells were plated and allowed to incubate for 24 hours before dosing. Cells were harvested with 0.25% TrypLE for 5 minutes at 37° C. in a 5.0% CO2 incubator. For sterilization, all Gd(III)-labeled molecules were filtered with 0.2 μm sterile filters prior to concentration determination and storage at 4° C. GO was used as prepared without further sterilization. […] Cells were grown in a humidified incubator operating at 37° C. and 5.0% CO2.
(§1) Cell counting was conducted using a Guava EasyCyte Mini Personal Cell Analyzer (EMD Millipore, Billerica, Mass.). After cell harvesting, an aliquot (50 μL) of the cell suspensions was mixed with Guava ViaCount reagent (150 μL) and allowed to stain at room temperature for at least 5 minutes. The dilution factor of 4 was determined based upon optimum machine performance (20-150 cells/μL). After vortexing for 10 sec, stained cells were counted using a Guava EasyCyte Mini Personal Cell Analyzer (PCA) using the ViaCount software module. For each sample, 1000 events were acquired. Gating of live/dead and cell/debris classifications were performed manually by the operator.
Cellular delivery studies were performed with HeLa and KB cells. HeLa and KB were plated at a cell density of approximately 25,000 and 50,000 cells per well, respectively, in a 24-well plate as counted by a hemocytometer. Stock solutions of 1-14 (1 mM), 150 nm GO (100 μg/mL), and 1500 nm GO (100 μg/mL) were prepared using sterile Milli-Q water. Prior to dosing, 80 μL ([…]) of each GO (150 nm and 1500 nm) and 80 μL (80 nmol) of each Gd(III)-labeled molecule (1-14) were mixed and allowed to adsorb for at least 15 minutes. 150 μL Gd(III)-GO solutions were added to 250 μL media to give a final concentration of 188 μM Gd and 18.8 μg/mL GO. Cells were incubated with the mixture of Gd(III)-labeled molecules and GO for […]. To harvest, cells were rinsed in-plate three times with 500 μL PBS and trypsinized using 100 μL 0.25% TrypLE. […]

HeLa cells [2] = assay: 24 hour cytotoxicity assay (Guava ViaCount); assay type: cell-based; details: for IC50: read-out: IC50 (viability)
Experimental: FIG. 11. 24 hour cytotoxicity assay using HeLa cells at increasing Magnevist and GO concentrations. […] The maximum GO dose required for cellular delivery enhancement is 20 μg/mL, or an order of magnitude below the highest test dose. The 150 nm GO was used for the study.
FIGS. 12A-B. Cytotoxicity of Magnevist. A) Viability of HeLa cells at increasing Magnevist concentration as measured by the Guava ViaCount Assay. Analysis includes floating cells at the end of the 24-hr incubation period. The fitted IC50 was 80 mM. […] Fitting was performed using GraphPad Prism software. All incubations were performed for 24 hours. Error bars show SD.
as §1

Diethylenetriaminepentaacetic acid gadolinium(III) dihydrogen salt hydrate [Molecule 11]
Enhancement by GO (HeLa cells [1]; 35 mM Magnevist, 20 μg/mL GO, 24-well plates): 3.3 × | Enhancement by GO (HeLa cells [1]; 6-well plates): 3.1 × | Delivery enhancement without adsorption time (HeLa cells [1]; 150 nm GO, mixture added directly to media): abolished | Delivery enhancement without adsorption time (HeLa cells [1]; 1500 nm GO, 188 μM Gd(III), 18.8 μg/mL GO): same result | Magnevist uptake (HeLa cells [1]; with GO, 35 mM Magnevist, 20 μg/mL GO (150 nm), 17 trials): 515±319 fmol Gd/cell | Typical cellular Gd(III) content (HeLa cells [1]; with GO, 35 mM Magnevist, 20 μg/mL GO, 24-well plates, N=11): 299±67 fmol/cell | Loading (cellular Gd(III) content) (HeLa cells [1]; with GO, 6-well plates, N=13): 151±56 fmol/cell | Magnevist uptake (HeLa cells [1]; without GO, 35 mM Magnevist, 10 trials): 115±32 fmol Gd/cell | Typical cellular Gd(III) content (HeLa cells [1]; without GO, 35 mM Magnevist, 24-well plates, N=4): 91±9 fmol/cell | Loading (cellular Gd(III) content) (HeLa cells [1]; without GO, 6-well plates, N=4): 49±19 fmol/cell | IC50 (HeLa cells [2]; 24 h, after in-plate washing by PBS, floating cells not included): 99 mM | IC50 (HeLa cells [2]; 24 h, analysis includes floating cells): 80 mM | Cytotoxicity (HeLa cells [2]; 24 h, up to 35 mM Magnevist and 250 μg/mL GO (150 nm GO)): No significant cytotoxicity | Cytotoxicity (HeLa cells [2]; Magnevist increased to 70 mM, with GO): synergistic cytotoxicity
